Test results: US4567192A, “Acylaminophenol derivatives” (Sandoz Ltd., priority 1983, dated 1986)

What was measured:
[1] = Deaths after oral administration to mice; assay type: in vivo, mouse; conditions: 1'000 mg/kg p.o.
[2] = test system: GPT (Glutamate-Pyruvate-Transaminase); assay: Hepatoxicity: GPT (Glutamate-Pyruvate-Transaminase) level in mouse serum; assay type: in vivo
Description: (§1) Thus on administration of 1'000 mg/kg p.o. of COMPOUND A in accordance with the invention to mice, no increase in GOT and GPT levels over levels in untreated controls (40 to 80 units/liter) is observed and no deaths are recorded. In contrast on administration of compound B (paracetamol) at a dosage of 560 mg/kg p.o., GOT levels are elevated to 3'800 units/liter and GPT levels are elevated to 3'000 units and on administration of compound B at a dosage of 1'000 mg/kg p.o., death of 2 out of 5 test animals is recorded.

[3] = Test I: arthritis pain test (method of A. W. Pircio et al.); assay type: in vivo; conditions: po
Source text: (I) The arthritis pain test (based on the method of A. W. Pircio et al., Eur. J. Pharmacol. 31, 207-215, 1975); and
(§2) As previously indicated, required daily dosages will depend inter al. on the particular compound of the invention employed. Results obtained for the compounds (L)-(4-acetamido-phenyl)-2-oxo-thiazolidine-4-carboxylate (compound A) in accordance with the present invention and the known analgesic paracetamol (compound B) in tests I and II above are shown in the following table.

inflamed rat hind-paw = assay: Test II: Randall-Selitto Test on the inflamed rat hind-paw; assay type: in vivo; conditions: po
Source text: (II) The Randall-Selitto Test on the inflamed rat hind-paw (Arch. Int. Pharmacodyn. 61, 409-419, 1957).
as §2

[4] = test system: GOT (Glutamate-Oxalacetate-Transaminase); assay: Hepatoxicity: GOT (Glutamate-Oxalacetate-Transaminase) level in mouse serum; assay type: in vivo
Description: as §1

[5] = high dosages, cited from earlier work
[6] = mice, 1'000 mg/kg p.o., untreated controls 40 to 80 units/liter

SMILES | deaths [1] | increase in GPT levels over levels in untreated controls [2, 6] | ED50 ([3]; 1 hr.) | ED50 ([3]; 3 hrs.) | ED50 ([3]; 5 hrs.) | ED50 (inflamed rat hind-paw) | increase in GOT levels over levels in untreated controls [4, 6] | death of test animals [1] | GPT levels ([2]; mouse, in vivo, po, 560 mg/kg) | death ([5]; following liver damage) | damage of the liver [5] | GOT levels ([4]; mouse, in vivo, po, 560 mg/kg)
CC(=O)Nc1ccc(OC(=O)[C@@H]2CSC(=O)N2)cc1 [COMPOUND A, (L)-(4-acetamido-phenyl)-2-oxo-thiazolidine-4-carboxylate] | no deaths | no increase | ~162 mg/kg | 162 mg/kg | 264 mg/kg | 310 mg/kg | no increase | – | – | – | – | –
CC(=O)Nc1ccc(O)cc1 [COMPOUND B, N-(4-hydroxyphenyl)acetamide] | – | – | 75 mg/kg | 142 mg/kg | 261 mg/kg | 203 mg/kg | – | 2 out of 5 | 3'000 units | may lead to death | extensive damage of the liver | 3'800 units/liter
